The text below walks through data of patent US20140079775A1, “AGENTS TO TREAT/PREVENT AMOEBIASIS” (priority 2011, published 2014).

Like-named read-outs stand apart in the source and are kept apart here.

In the data set the test system is E. histolytica mediated cytotoxicity on HT-29 cell layers. The data set is classed as cell-based, Entamoeba histolytica. The settings on record: for protection of the cell layer (in words): physiologically relevant concentrations of individual HMO. The procedure: FIG. 2 HMO prevent E. histolytica mediated cytotoxicity in in vitro co-culture with enterocytes. Representative images of methylene blue stained HT-29 cell layers as such (A, left) or cocultured with HM-1 trophozoites in the absence (A, middle) or presence (A, right) of 10 mg/ml HMO. Dose response curve with different concentrations of HMO (B). The O.D 660 nm of methyleneblue cell layers was used as a measure for cytotoxicity. The cytoprotective effect of HMO was calculated as the percent ‘cell rescue’ compared to the untreated coculture (0%). Results are means SEM of 4 independent experiments. Cocultures were incubated with different glycans and cytotoxicity was determined as described above (C). […] HMO rescues cell layers when added to existing cocultures (D). HT-29 cells were cocultured with HM-1 and 20 mg/ml HMO was added at the indicated times of coculture. Cocultures were stopped and cytotoxicity was determined after 2 hrs. Control cell layers were cocultured for 2 hrs in the absence of HMO and were considered to have 0% cell rescue.
FIG. 3 Protection of the HT-29 monolayer by individual HMO. Cell rescue in co-culture treated with physiologically relevant concentrations of individual HMO (A). Symbols represent structures of individual HMO. Cell survival in the presence of equimolar concentrations of LNT, LNFP1 and a mixture of LNFP1, LNFP2, and LNFP3. […] Cytotoxicity assay with 10 mM 2′FL before and after fucosidase digestion (C). 2′FL left untreated or incubated with alpha1, 2 fucosidase was used in cytotoxicity assay. As controls, we used enzyme reaction buffer with inactivated fucosidase (control); equimolar concentrations (10 mM) of Lac, Fuc, or Fuc and Lac combined. Data from cytotoxicity assays are presented as % cell rescue compared to untreated cocultures (0%). Error bars are SEM, stars indicate statistical significance compared to control unless indicated by bars.
FIG. 4 GOS reduces cytotoxicity of trophozoites independent of its lactose content. Cell rescue in cocultures treated with increasing concentrations of GOS (triangles) or its corresponding lactose content (circles)(A). Cytotoxicity assay with GOS fractions (B). Higher numbered (eluted later) fractions contain lower molecular weight carbohydrates. The lactose content of fractions 11 and 12 is indicated above the respective bars. HPLC chromatogram of the original GOS preparation (20% lactose) (upper panel) and of the lactose free GOS (<0.5%) (C). Cytotoxicity assay with increasing concentrations of lactose-free GOS (triangles) and Lac-containing GOS (circles)(D).
HMO prevent enterocyte cytotoxicity by E. histolytica in in vitro cocultures. Previous studies have shown reduced Entamoeba attachment and cytotoxicity in the presence of selected carbohydrates (Cano-Mancera and Lopez-Revilla, 1987; Ravdin and Guerrant, 1981; Bracha and Mirelman, 1984). We tested the effect of HMO on Entamoeba induced cytotoxicity in in vitro cocultures with HT-29 cell layers and calculated the % cell rescue (FIG. 2A). […] The cell protective effect of 20 mg/ml HMO is similar to the effect of 10 mM lactose and better than the effect of 10 mM galactose (FIG. 2C). […] Treatment with 20 mg/ml after 90 min of cocultures could still rescue 31±4.7% of the cell layer.

As for `OC[C@H]1O[C@@H](O[C@H]2[C@H](O)[C@@H](O)C(O)O[C@@H]2CO)[C@H](O)[C@@H](O)[C@H]1O` (stereo partly drawn) [Lactose, lactose], the “prevention of cytotoxicity (in words)” value (10 mM) is “significantly prevent cytotoxicity”. In addition, the “effect on cytotoxicity compared with lactose containing GOS (in words)” value (Lac concentrations present in each GOS sample) was “significantly lower”. For the molecule `CC(=O)N[C@H]1[C@H]([C@H](O)[C@H](O)CO)O[C@@](OC[C@H]2O[C@@H](O[C@H]3[C@H](O)[C@@H](O)C(O)O[C@@H]3CO)[C@H](O)[C@@H](O)[C@H]2O)(C(=O)O)C[C@@H]1O` (stereo partly drawn) [6′SL, 6-sialyl-lactose], the “protection of the cell layer (in words)” value was “failed to prevent monolayer destruction”. Take `O=C[C@H](O)[C@@H](O)[C@@H](O)[C@H](O)CO` [galactose]: under “10 mM”, the “prevention of cytotoxicity (in words)” value is “no significant effect”. As to `CC(=O)N[C@H]1[C@H](O[C@H]2[C@@H](O)[C@@H](CO)O[C@@H](O[C@H]3[C@H](O)[C@@H](O)C(O)O[C@@H]3CO)[C@@H]2O)O[C@H](CO)[C@@H](O)[C@@H]1O[C@@H]1O[C@H](CO)[C@H](O)[C@H](O)[C@H]1O[C@@H]1O[C@@H](C)[C@@H](O)[C@@H](O)[C@@H]1O` (stereo partly drawn) [LNFP1], the “rescue of enterocytes (in words)” value (5 mg/ml) is listed as “no effect”. Moreover, where the note is “10 mM”, the cell rescue stood at 16.9±1.7%. As for `CC(=O)N[C@H]1[C@H](O[C@H]2[C@@H](O)[C@@H](CO)O[C@@H](O[C@H]3[C@H](O)[C@@H](O)C(O)O[C@@H]3CO)[C@@H]2O)O[C@H](CO)[C@@H](O)[C@@H]1O[C@@H]1O[C@H](CO)[C@H](O)[C@H](O)[C@H]1O` (stereo partly drawn) [LNT, Lacto-N-tetraose], the “protection of the cell layer (in words)” value was “significantly protected the cell layer”. The molecule also gave a cell rescue (5 mg/ml) of 49.5±9.2%. The cell rescue (10 mM) was 79±8.3%. In the case of `C[C@H](O)[C@@H](O)[C@@H](O)[C@H](O)C=O` [fucose], the “prevention of cytotoxicity (in words)” value by setting is: (10 mM) “no significant effect”; (10 mM, listed as Fucose) “do not prevent cytotoxicity”. As to 3-sialyl-lactose [3′SL], the “protection of the cell layer (in words)” value was “failed to prevent monolayer destruction”.
